Columns and labels:
Type in all cases: cell-based
[1] = system: Bacillus cereus; experiment: Agar plate disc-diffusion, antibacterial inhibition zone
Protocol: (§1) The agar plate disc-diffusion method was applied. […] The discs were then placed onto the surface of agar plates (nutrient agar for bacteria and Sabouraud's dextrose agar for fungi) seeded with the test organism. Each plate contained 15 mL of the agar medium, previously seeded with 0.2 mL of the broth culture of each organism pregrown for 18 hours. The plates were incubated at 37° C. for 48 hours, and 72 hours for fungi. The inhibition zones were measured in mm. Discs impregnated with DMSO were used as a control, and its inhibition zone was subtracted from the tested compound actual inhibition zone.

[2] = system: Escherichia coli; experiment: as above
Protocol: as §1

[3] = system: Pseudomonas aeruginosa; experiment: as above
Protocol: as §1

[4] = system: Staphylococcus aureus; experiment: as above
Protocol: as §1

[5] = system: Aspergillus flavus; experiment: Agar plate disc-diffusion, antifungal inhibition zone
Protocol: as §1

[6] = system: Chrysosporium keratinophilum; experiment: as above
Protocol: as §1

[7] = system: different microbes; experiment: Antimicrobial screening, overall statement; details: against different microbes (bacteria and fungi of Tables 1 and 2)
Protocol: The agar plate disc-diffusion method was applied. Sterilized filter papers (6 mm in diameter) were wetted with 10 μL of a solution of ethyl 2-(5-(3-fluorophenyl)-4-phenyl-4H-1,2,4-triazol-3-ylthio)acetate (III) to be tested, containing 10 mg/mL in DMSO, and the discs were allowed to air dry. The discs were then placed onto the surface of agar plates (nutrient agar for bacteria and Sabouraud's dextrose agar for fungi) seeded with the test organism. Each plate contained 15 mL of the agar medium, previously seeded with 0.2 mL of the broth culture of each organism pregrown for 18 hours. The plates were incubated at 37° C. for 48 hours, and 72 hours for fungi. The inhibition zones were measured in mm. Discs impregnated with DMSO were used as a control, and its inhibition zone was subtracted from the tested compound actual inhibition zone.

[8] = A = concentration of comp. = 10,000 μL
[9] = B = concentration of comp. = 30,000 μL
[10] = C = concentration of comp. = 50,000 μL

Compound | inhibition zone [1, 8] | inhibition zone [1, 9] | inhibition zone [1, 10] | inhibition zone [2, 8] | inhibition zone [2, 9] | inhibition zone [2, 10] | inhibition zone [3, 8] | inhibition zone [3, 9] | inhibition zone [3, 10] | inhibition zone [4, 8] | inhibition zone [4, 9] | inhibition zone [4, 10] | inhibition zone [5, 8] | inhibition zone [5, 9] | inhibition zone [5, 10] | inhibition zone [6, 8] | inhibition zone [6, 9] | inhibition zone [6, 10] | antimicrobial activity (in words) [7]
O=C(O)c1cn(C2CC2)c2cc(N3CCNCC3)c(F)cc2c1=O [Cip., ciprofloxacin, reference compound] | 29 mm | 30 mm | 42 mm | 30 mm | 39 mm | 60 mm | 29 mm | 30 mm | 53 mm | 43 mm | 44 mm | 53 mm | 29 mm | 30 mm | 42 mm | 29 mm | 30 mm | 53 mm | –
CCOC(=O)CSc1nnc(-c2cccc(F)c2)n1-c1ccccc1 [III, ethyl 2-(5-(3-fluorophenyl)-4-phenyl-4H-1,2,4-triazol-3-ylthio)acetate] | 24 mm | 27 mm | 39 mm | 26 mm | 34 mm | 50 mm | 25 mm | 26 mm | 44 mm | 18 mm | 21 mm | 30 mm | 20 mm | 23 mm | 29 mm | 25 mm | 29 mm | 47 mm | excellent antimicrobials activities

From patent US11939305B1, “Ethyl 2-(5-(3-fluorophenyl)-4-phenyl-4H-1,2,4-triazol-3-ylthio)acetate as an antimicrobial compound” (KING FAISAL UNIVERSITY, priority 2023, dated 2024)
